From the Kinase Knowledgebase extract (Sharma et al. 2016)

Key:
MAPK14 (human) [1] = biological target: MAPK14 (human) (UniProt Q16539); test: Assessment of MAPK14 Kinase Activity
MAPK14 (human) [2] = biological target: MAPK14 (human) (UniProt Q16539); test: Inhibition of MAPK14 Kinase Activity

MAPK14 (human), sequence (Q16539 whole entry, looked up): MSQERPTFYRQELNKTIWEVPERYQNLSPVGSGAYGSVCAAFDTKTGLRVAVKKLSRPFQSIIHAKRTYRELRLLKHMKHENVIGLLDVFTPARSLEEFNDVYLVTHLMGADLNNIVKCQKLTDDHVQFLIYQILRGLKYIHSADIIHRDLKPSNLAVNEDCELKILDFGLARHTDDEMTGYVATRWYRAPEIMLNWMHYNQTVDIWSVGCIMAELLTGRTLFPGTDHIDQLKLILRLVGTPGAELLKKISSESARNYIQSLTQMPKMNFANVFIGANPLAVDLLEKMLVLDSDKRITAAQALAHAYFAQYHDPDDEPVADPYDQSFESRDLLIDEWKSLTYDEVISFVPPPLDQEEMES

Work on `Cc1c(F)cc(C(=O)NC2CC2)cc1-c1ccc(C(=O)N[C@@H](C)C(C)C)c[n+]1[O-]` yielded an IC50 (MAPK14 (human) [1]) of less than 10 µM and an IC50 (MAPK14 (human) [2]) of less than 10 µM.
`Cc1c(F)cc(C(=O)NC2CC2)cc1-c1ccc(C(=O)NCc2cc(F)ccc2C(F)(F)F)c[n+]1[O-]` showed an IC50 (MAPK14 (human) [2]) of less than 10 µM.
Work on `Cc1c(F)cc(C(=O)NC2CC2)cc1-c1ccc(C(=O)N[C@@H](C)C(C)(C)C)c[n+]1[O-]` yielded an IC50 (MAPK14 (human) [1]) of less than 10 µM and an IC50 (MAPK14 (human) [2]) of less than 10 µM.
`Cc1c(F)cc(C(=O)NC2CC2)cc1-c1ccc(C(=O)NC(C)(C)C)c[n+]1[O-]` gave an IC50 (MAPK14 (human) [1]) of less than 10 µM and an IC50 (MAPK14 (human) [2]) of less than 10 µM.
Molecule `Cc1c(F)cc(C(=O)NC2CC2)cc1-c1ccc(C(=O)N[C@H](C)C(C)(C)C)c[n+]1[O-]` has an IC50 (MAPK14 (human) [2]) of less than 10 µM.
Molecule `Cc1c(F)cc(C(=O)NC2CC2)cc1-c1ccc(C(=O)NCC(C)C)c[n+]1[O-]` has an IC50 (MAPK14 (human) [2]) of less than 10 µM.
Work on `Cc1c(F)cc(C(=O)NC2CC2)cc1-c1ccc(C(=O)NCc2cc(C(F)(F)F)ccc2F)c[n+]1[O-]` yielded an IC50 (MAPK14 (human) [1]) of less than 10 µM and an IC50 (MAPK14 (human) [2]) of less than 10 µM.
`Cc1cc(C)cc(CNC(=O)c2ccc(-c3cc(C(=O)NC4CC4)cc(F)c3C)[n+]([O-])c2)c1` showed an IC50 (MAPK14 (human) [2]) of less than 10 µM.
